# Active and inactive are the calls of the source.
# Legend:
# [1] = biological target: DNA dC->dU-editing enzyme APOBEC-3G (Homo sapiens, UniProt Q9HC16); type: functional;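 note: Dose-response counterscreen measuring inhibition of APOBEC3G DNA deaminase activity, run while confirming APOBEC3A inhibitors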
# [2] = biological target: DNA dC->dU-editing enzyme APOBEC-3A (Homo sapiens, UniProt P31941); assay: Dose Response confirmation of small molecule APOBEC3A DNA Deaminase Inhibitors via a fluorescence-based single-stranded DNA deaminase assay. [Related pubchem assays (depositor defined):AID493011, AID493024]; type: functional
# Sequence of DNA dC->dU-editing enzyme APOBEC-3A (P31941 whole entry): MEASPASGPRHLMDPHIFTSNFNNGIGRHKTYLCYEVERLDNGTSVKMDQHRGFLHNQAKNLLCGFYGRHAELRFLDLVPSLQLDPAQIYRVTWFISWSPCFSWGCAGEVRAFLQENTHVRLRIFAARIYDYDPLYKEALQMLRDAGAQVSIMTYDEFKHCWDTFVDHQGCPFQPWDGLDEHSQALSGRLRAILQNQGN
# [3] = biological target: Hexokinase (Trypanosoma brucei, UniProt Q38C41); assay: Confirmation assay for inhibitors of Trypanosoma brucei hexokinase 1-Analogue-first series. [Related pubchem assays (depositor defined):AID1430, AID1632, AID2516, AID2560, AID2579, AID2600, AID449725, AID492951]; type: functional
# Sequence of Hexokinase (Q38C41 whole entry): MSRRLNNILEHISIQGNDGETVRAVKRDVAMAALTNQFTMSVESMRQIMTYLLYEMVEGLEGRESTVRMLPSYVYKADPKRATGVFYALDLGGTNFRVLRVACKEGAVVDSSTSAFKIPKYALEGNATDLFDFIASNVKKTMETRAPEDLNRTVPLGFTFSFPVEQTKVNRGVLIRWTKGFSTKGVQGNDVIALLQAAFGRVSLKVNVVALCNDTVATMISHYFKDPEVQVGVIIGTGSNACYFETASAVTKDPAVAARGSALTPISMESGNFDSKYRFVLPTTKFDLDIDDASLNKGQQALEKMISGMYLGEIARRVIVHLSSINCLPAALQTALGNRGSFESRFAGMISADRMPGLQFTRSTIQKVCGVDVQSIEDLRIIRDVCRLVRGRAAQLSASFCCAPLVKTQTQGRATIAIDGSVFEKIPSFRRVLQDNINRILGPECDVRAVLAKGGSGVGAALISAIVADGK
# [4] = biological target: T1, G-protein coupled receptor 35 (Homo sapiens, UniProt Q9HC97); assay: SAR analysis of Agonists of the GPR35 Receptor using an Image-Based Assay - Set 3. [Related pubchem assays (depositor defined):AID1961, AID1965]; type: functional
# T1 sequence (Q9HC97 whole entry): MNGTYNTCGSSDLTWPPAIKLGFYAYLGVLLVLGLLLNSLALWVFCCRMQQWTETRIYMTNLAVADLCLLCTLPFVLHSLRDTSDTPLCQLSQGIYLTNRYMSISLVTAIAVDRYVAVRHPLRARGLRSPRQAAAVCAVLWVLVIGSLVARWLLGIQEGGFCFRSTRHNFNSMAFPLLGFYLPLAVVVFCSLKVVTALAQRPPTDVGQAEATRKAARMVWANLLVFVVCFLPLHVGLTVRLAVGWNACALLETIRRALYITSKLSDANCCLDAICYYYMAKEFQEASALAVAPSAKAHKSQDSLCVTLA
# [5] = biological target: T2, Cannabinoid receptor 1 (Homo sapiens, UniProt P21554); assay: SAR analysis of agonists of the Cannabinoid Receptor 1 using an Image-Based Assay - Set 3. [Related pubchem assays (depositor defined):AID1961, AID1965]; type: functional
# T2 sequence (P21554 whole entry): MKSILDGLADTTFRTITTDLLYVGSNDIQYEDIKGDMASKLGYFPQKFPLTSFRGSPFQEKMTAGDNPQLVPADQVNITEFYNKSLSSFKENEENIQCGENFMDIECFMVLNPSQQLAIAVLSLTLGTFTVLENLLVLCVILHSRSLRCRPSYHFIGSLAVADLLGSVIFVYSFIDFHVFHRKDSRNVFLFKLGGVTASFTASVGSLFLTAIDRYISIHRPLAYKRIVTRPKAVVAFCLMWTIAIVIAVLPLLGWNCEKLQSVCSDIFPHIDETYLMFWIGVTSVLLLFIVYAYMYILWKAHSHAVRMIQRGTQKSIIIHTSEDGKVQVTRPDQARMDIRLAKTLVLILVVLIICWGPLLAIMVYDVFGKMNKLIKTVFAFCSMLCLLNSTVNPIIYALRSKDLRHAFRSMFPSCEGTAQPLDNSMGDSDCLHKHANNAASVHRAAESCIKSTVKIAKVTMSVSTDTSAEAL
# [6] = biological target: T3, Cannabinoid receptor 2 (Homo sapiens, UniProt P34972); assay: SAR analysis of antagonists of the Cannabinoid Receptor 2 using an Image-Based Assay - Set 2. [Related pubchem assays (depositor defined):AID1961, AID1965]; type: functional
# T3 sequence (P34972 whole entry): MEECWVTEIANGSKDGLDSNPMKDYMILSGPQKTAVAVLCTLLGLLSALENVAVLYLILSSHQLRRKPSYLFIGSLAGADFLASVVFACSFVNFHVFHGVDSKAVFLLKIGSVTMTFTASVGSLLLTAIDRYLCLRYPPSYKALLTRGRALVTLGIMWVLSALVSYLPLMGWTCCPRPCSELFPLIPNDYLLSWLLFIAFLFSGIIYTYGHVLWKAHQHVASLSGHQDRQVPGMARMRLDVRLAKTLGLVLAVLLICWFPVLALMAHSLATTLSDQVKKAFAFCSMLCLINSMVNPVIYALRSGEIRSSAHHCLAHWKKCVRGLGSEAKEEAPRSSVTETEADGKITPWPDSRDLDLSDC
# [7] = biological target: T1, G-protein coupled receptor 35; assay: SAR analysis of Antagonists of the GPR35 Receptor using an Image-Based Assay - Set 4. [Related pubchem assays (depositor defined):[…]]; type: functional
# [8] = biological target: T3, Cannabinoid receptor 2; assay: SAR analysis of agonists of the Cannabinoid Receptor 2 using an Image-Based Assay - Set 2. [Related pubchem assays (depositor defined):AID1961, AID1965]; type: functional
# [9] = biological target: G-protein coupled receptor 55 (Homo sapiens, UniProt Q9Y2T6); assay: SAR analysis of selective Agonists of GPR55 using an Image-Based Assay - Set 2. [Related pubchem assays (depositor defined):AID1961, AID1965]; type: functional
# Sequence of G-protein coupled receptor 55 (Q9Y2T6 whole entry): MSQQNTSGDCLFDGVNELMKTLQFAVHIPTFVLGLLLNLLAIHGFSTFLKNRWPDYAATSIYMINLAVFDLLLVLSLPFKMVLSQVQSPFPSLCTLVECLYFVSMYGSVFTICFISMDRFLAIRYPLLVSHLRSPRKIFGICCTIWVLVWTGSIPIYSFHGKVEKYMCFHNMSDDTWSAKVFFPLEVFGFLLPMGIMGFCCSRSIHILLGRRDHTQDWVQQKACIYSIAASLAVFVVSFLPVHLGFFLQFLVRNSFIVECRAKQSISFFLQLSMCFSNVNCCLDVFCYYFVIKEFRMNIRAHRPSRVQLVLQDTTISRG
# [10] = biological target: T2, Cannabinoid receptor 1; assay: SAR analysis of antagonists of the Cannabinoid Receptor 1 using an Image-Based Assay - Set 3. [Related pubchem assays (depositor defined):AID1961, AID1965]; type: functional
# [11] = BJeH cell viability loss – BJeH cells, dry powder, counter-screen for Ras selective lethality project, dose response (AID 493054); type: functional, cell-based
# [12] = BJeHLT cell viability loss – BJeHLT cells, dry powder, counter-screen for Ras selective lethality project, dose response (AID 493052); type: functional, cell-based; details: Homo sapiens
# [13] = DRD BJ cell killing, Ras synthetic lethality – DRD BJ fibroblasts, HRASV12, dry powder, dose response (AID 493049); type: functional, cell-based
# [14] = HRAS-V12 fibroblast viability reduction – cell-based, Alamar Blue, dry powder, Ras selective lethality project, primary screen (AID 493045); type: functional; details: BJeLR
# [15] = biological target: T4, Streptokinase A (Streptococcus pyogenes serotype M1, UniProt P10520); assay: viability-normalized secreted streptokinase activity reduction – plasminogen activation absorbance, OD405, dose response (AID 1914); type: functional, Streptococcus pyogenes M1 GAS;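 note: secreted streptokinase activity via plasminogen activation per viability signal from cell pellet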
# T4 sequence (P10520 whole entry): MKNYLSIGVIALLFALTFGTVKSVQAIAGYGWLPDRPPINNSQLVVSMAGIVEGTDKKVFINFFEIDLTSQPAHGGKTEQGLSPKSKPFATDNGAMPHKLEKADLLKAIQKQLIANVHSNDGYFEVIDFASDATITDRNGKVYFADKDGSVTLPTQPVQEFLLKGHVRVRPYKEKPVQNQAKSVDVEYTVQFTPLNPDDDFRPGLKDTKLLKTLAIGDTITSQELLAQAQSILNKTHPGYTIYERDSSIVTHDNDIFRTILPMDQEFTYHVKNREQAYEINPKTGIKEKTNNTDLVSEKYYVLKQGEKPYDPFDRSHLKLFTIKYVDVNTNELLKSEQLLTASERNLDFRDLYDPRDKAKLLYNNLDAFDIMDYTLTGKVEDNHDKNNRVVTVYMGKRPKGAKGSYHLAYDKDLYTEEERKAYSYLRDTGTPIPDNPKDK
# [16] = biological target: Albumin (Bos taurus, UniProt P02769); assay: Counterscreen for inhibitors of T-cell receptor (TCR)-CD3 interaction: Fluorescence-based biochemical high throughput dose response assay to identify inhibitors of T-cell receptor (TCR)-CD3 interaction using a TAMRA-labeled BSA probe.; type: functional
# Sequence of Albumin (P02769 whole entry, the tested form may be a part): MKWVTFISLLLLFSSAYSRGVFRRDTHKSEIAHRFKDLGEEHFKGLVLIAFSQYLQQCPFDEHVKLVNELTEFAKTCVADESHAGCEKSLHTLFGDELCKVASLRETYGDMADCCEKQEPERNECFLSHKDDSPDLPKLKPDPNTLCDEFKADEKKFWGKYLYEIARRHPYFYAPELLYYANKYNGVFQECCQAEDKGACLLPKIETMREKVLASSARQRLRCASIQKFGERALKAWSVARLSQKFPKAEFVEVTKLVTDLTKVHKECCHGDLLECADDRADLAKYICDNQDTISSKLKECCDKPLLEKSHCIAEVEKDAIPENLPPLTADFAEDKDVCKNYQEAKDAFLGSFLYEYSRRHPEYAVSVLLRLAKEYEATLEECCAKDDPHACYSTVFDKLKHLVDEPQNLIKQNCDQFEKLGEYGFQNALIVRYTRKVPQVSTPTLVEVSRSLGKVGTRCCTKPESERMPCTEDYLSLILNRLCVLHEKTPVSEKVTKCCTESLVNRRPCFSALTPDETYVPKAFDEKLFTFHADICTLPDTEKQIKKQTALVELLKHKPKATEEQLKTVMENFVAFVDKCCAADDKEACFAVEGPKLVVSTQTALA
# [17] = biological target: NACHT, LRR and PYD domains-containing protein 3 (Homo sapiens, UniProt Q96P20); assay: NALP3 inhibitors in yeast, dose response, luminescent (AID 488799); type: functional
# Sequence of NACHT, LRR and PYD domains-containing protein 3 (Q96P20 whole entry, the tested form may be a part): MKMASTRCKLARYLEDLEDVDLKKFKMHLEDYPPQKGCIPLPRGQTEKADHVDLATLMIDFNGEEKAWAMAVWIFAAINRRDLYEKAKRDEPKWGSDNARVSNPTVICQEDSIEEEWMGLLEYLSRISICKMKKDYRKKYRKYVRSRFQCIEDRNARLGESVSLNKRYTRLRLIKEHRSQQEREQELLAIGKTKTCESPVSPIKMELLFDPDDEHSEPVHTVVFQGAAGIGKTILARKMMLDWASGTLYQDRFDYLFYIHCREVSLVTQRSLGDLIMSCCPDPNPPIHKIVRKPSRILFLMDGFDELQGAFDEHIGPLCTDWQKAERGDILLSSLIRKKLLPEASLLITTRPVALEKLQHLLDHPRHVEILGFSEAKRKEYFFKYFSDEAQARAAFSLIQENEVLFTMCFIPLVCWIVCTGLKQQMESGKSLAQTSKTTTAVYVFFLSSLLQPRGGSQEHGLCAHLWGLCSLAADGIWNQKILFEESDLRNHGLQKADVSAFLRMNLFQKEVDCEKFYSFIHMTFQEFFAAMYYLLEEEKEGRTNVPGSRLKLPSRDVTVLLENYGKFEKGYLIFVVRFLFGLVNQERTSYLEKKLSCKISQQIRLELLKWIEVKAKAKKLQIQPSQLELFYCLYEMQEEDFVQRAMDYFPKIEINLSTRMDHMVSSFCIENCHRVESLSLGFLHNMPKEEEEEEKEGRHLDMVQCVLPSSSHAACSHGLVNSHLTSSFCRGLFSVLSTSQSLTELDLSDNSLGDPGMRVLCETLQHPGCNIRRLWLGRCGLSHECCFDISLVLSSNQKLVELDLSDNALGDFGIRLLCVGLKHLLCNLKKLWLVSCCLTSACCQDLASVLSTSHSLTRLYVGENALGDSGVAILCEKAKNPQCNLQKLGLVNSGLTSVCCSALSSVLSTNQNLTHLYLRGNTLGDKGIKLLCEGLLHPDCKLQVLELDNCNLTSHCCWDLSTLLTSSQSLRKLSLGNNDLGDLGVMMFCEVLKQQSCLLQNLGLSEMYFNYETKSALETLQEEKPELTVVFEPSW
# [18] = tested on: Streptococcus; assay: GAS UMAA2166 growth inhibition – luminescence, BacTiterGlo, counter-screen for streptokinase expression inhibitor project, dose response (AID 1915); type: functional, organism-based;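 note: potency for reduction of bacterial viability or growth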
# [19] = tested on: Streptococcus sp. 'group A'; assay: Streptococcus pyogenes SK(-)GAS viability under kanamycin – luminescence, BacTiterGlo, confirmation, counter-screen for streptokinase expression inhibitor project, dose response (AID 1900); type: functional, organism-based
# [20] = biological target: T5, Corticotropin-releasing factor receptor 2/Corticotropin-releasing factor-binding protein (Homo sapiens, UniProt P24387+Q13324); assay: activators of CRF receptor 2 with binding protein – uHTS hits, confirmation (AID 602473); type: functional; details: read-out: EC50_Mean
# T5 sequence (Q13324 whole entry): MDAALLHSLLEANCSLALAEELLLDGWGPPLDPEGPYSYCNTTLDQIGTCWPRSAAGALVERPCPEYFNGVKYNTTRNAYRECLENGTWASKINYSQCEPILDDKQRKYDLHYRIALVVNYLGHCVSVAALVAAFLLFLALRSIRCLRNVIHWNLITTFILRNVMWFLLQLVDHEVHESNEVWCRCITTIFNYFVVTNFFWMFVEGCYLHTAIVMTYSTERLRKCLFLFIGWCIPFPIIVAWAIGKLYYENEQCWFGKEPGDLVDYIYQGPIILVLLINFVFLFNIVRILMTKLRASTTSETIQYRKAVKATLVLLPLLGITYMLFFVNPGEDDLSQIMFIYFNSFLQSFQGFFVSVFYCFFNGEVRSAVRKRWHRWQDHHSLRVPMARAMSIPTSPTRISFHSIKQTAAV
# T5 sequence (P24387 whole entry): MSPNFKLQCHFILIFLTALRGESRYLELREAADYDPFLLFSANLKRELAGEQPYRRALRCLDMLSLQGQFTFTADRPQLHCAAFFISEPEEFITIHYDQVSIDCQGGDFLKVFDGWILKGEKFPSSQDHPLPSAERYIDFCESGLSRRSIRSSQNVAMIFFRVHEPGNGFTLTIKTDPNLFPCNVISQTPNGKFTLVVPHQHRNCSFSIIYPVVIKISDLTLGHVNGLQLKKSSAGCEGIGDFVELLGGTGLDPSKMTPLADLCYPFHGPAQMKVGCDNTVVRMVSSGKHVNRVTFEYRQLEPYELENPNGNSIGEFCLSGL
# [21] = biological target: T6, Dual specificity protein phosphatase 6 (Rattus norvegicus, UniProt Q64346); type: functional;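 note: confirmatory in vitro dose-response testing of MKP-3 inhibition; recombinant His-tagged MKP-3 made in E. coli BL21 with OMFP substrate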
# T6 sequence (Q64346 whole entry): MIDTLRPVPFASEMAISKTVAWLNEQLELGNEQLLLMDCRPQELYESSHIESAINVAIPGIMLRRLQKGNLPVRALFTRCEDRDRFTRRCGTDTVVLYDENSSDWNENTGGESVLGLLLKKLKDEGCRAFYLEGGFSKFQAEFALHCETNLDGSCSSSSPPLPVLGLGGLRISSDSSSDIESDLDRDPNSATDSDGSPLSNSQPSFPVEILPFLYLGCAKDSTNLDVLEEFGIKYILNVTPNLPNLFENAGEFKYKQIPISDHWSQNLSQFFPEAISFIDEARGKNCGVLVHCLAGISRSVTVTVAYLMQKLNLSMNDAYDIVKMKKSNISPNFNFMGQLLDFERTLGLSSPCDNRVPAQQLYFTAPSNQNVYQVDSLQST
# [22] = biological target: T7, Dual specificity protein phosphatase 3 (Homo sapiens, UniProt P51452); assay: SAR VHR1 Fluorescent Assay for In Vitro dose response studies. [Related pubchem assays (depositor defined):AID1654, AID1661, AID1878, AID1992, AID2004, AID2070, AID2085]; type: functional
# T7 sequence (P51452 whole entry): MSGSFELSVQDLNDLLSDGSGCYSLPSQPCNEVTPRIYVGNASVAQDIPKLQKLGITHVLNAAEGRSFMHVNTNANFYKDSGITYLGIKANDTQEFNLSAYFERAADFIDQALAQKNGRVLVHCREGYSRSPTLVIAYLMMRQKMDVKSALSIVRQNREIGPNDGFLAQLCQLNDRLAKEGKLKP
# [23] = biological target: T8, Tyrosine-protein phosphatase non-receptor type 7 (Homo sapiens, UniProt P35236); assay: redox-active compounds inhibiting HePTP phosphatase – biochemical, fluorescence, mechanism study (AID 2068); type: functional
# T8 sequence (P35236 whole entry): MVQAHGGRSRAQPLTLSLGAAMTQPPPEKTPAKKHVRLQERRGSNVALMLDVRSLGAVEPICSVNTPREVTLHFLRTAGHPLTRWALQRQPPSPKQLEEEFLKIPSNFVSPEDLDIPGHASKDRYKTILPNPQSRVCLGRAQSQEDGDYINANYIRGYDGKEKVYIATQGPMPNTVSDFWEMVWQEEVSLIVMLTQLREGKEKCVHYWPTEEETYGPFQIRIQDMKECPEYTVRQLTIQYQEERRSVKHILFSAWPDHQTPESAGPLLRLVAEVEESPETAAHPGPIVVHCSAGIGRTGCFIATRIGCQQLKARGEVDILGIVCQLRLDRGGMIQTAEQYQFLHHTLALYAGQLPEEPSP
# [24] = biological target: T7, Dual specificity protein phosphatase 3; assay: SAR VHR1 Fluorescent Assay for In Vitro dose response studies Set 2. [Related pubchem assays (depositor defined):AID1654, AID1661, AID1878]; type: functional
# [25] = biological target: T7, Dual specificity protein phosphatase 3; assay: SAR VHR1 absorbance Assay for In Vitro dose response studies. [Related pubchem assays (depositor defined):AID1654, AID1661, AID1878, AID1992, AID2004]
# [26] = biological target: T9, Caspase-3 (Homo sapiens, UniProt P42574); assay: activation of caspase-3 zymogen – biochemical, absorbance, dose response (AID 489014)
# T9 sequence (P42574 whole entry): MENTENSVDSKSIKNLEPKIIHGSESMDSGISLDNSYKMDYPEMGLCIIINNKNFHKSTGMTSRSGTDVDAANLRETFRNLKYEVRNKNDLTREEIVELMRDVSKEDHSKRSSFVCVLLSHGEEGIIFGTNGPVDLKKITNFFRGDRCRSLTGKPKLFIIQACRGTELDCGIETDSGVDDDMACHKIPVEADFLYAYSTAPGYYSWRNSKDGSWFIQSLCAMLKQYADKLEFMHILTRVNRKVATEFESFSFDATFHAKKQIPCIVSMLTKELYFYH
# [27] = biological target: T10, Caspase-7 (Homo sapiens, UniProt P55210); assay: activation of caspase-7 zymogen – biochemical, absorbance, counter-screen for procaspase-3 activator project, dose response (AID 489013)
# T10 sequence (P55210 whole entry): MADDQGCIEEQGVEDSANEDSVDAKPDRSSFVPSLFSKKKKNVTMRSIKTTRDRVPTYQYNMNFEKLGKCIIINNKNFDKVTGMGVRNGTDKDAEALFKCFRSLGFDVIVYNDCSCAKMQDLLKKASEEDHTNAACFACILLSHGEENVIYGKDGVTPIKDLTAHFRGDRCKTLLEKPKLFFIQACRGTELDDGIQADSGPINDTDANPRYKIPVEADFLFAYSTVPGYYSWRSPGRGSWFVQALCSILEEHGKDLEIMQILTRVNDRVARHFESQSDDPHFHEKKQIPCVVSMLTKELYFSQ
# Sequence of DNA dC->dU-editing enzyme APOBEC-3G (Q9HC16 whole entry): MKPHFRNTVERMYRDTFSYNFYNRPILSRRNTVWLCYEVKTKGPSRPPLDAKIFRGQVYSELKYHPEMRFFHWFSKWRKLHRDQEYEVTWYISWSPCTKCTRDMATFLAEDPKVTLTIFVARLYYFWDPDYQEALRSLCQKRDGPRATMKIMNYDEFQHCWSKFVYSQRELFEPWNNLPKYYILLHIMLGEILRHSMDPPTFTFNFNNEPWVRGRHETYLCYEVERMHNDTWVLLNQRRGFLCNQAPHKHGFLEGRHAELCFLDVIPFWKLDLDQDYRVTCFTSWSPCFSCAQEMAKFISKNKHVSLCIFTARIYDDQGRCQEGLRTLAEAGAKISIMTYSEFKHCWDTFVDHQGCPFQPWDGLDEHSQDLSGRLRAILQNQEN
structure (smiles),measurement,setting,value
COc1ccccc1OC(C)C(=O)N1CCC(Cc2ccccc2)CC1 (stereo unspecified),IC50,[1],6.99 µM (active)
same,IC50,[2],7.11 µM (active)
CC(C)(C)c1ccc(C(=O)Nc2cc(Br)ccc2C(=O)O)cc1,IC50,[3],2.39 µM (active)
CCCc1cc(C(=O)Nc2cc(S(=O)(=O)N3CCOCC3)ccc2OC)sc1C,EC50,[4],> 32 µM (inactive)
same,EC50,[5],> 32 µM (inactive)
same,IC50,[6],> 32 µM (inactive)
same,IC50,[7],> 32 µM (inactive)
same,EC50,[8],> 32 µM (inactive)
same,EC50,[9],> 32 µM (inactive)
same,IC50,[10],7.68 µM (active)
COc1ccc(N(C(=O)CCl)C(C)(C)C(=O)NCCc2ccccc2)cc1Cl,AC50,[11],0.254 µM (active)
same,AC50,[12],0.127 µM (active)
same,AC50,[13],0.06 µM (active)
same,AC50,[14],0.058 µM (active)
Cn1c(=O)c(C(=O)NNC(=O)c2ccccc2F)c(O)c2ccccc21,EC50,[15],> 150 µM (not active)
same,IC50,[16],> 94.1 µM (inactive)
same,IC50,[17],1.94 µM (active)
same,EC50,[18],18.6 µM (active)
same,EC50,[19],4.65 µM (active)
same,EC50,[20],5.36 µM (active)
CCN1CCN(c2ccc(S(=O)(=O)N3CCCCC3)cc2NC(=O)c2ccc(OC(F)F)cc2)CC1,IC50,[1],9.05 µM (active)
same,IC50,[2],10.9 µM (active)
NS(=O)(=O)c1cccc(C(=O)NC2CCSc3ccccc32)c1 (stereo unspecified),IC50,[21],> 100 µM (inactive)
same,IC50,[22],> 100 µM (inactive)
same,IC50,[23],> 100 µM (inactive)
same,IC50,[24],> 100 µM (inactive)
same,IC50,[25],> 100 µM (inactive)
O=C(NCCc1ccccc1)C(c1cccs1)N(C(=O)CCl)c1cccc(Cl)c1 (stereo unspecified),AC50,[11],0.544 µM (active)
same,AC50,[12],0.331 µM (active)
same,AC50,[13],0.154 µM (active)
same,AC50,[14],0.156 µM (active)
CC(NC(=O)c1cc2cc([N+](=O)[O-])ccc2oc1=O)C1CCCO1 (stereo unspecified),EC50,[26],13.4 µM (inactive)
same,EC50,[27],20.2 µM (inactive)
N#Cc1ccc(Oc2ccc3c(c2)B(O)OC3)cc1,IC50,[3],> 25 µM (inactive)
COc1ccc2c(c1)cc(C)c1nnc(SCC(=O)Nc3nc(C)cs3)n12,EC50,[4],> 32 µM (inactive)
same,EC50,[5],> 32 µM (inactive)
same,IC50,[6],> 32 µM (inactive)
same,IC50,[7],> 32 µM (inactive)
same,EC50,[8],> 32 µM (inactive)
same,EC50,[9],> 32 µM (inactive)
same,IC50,[10],> 32 µM (inactive)
